Measurements published in US9302999B2, “Substituted triazoles as herbicides” (E. I. DU PONT DE NEMOURS AND COMPANY, priority 2012, dated 2016).

Assays:
Assay type in all cases: in vivo
[1] = tested on: pigweed (Amaranthus retroflexus); assay: Test A pre-/postemergence: pigweed; conditions: for Pigweed plant response rating: Postemergence; for Plant response rating, Pigweed: Preemergence
Procedure, shortened: (§1)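 Seeds were sown in loam/sand blend and sprayed preemergence (directed soil spray) and, simultaneously, postemergence at 2–10 cm, one- to two-leaf stage, using compounds in non-phytotoxic solvent with surfactant. After ~10 days in greenhouse, injury was rated visually versus untreated controls, 0 (no effect) to 100 (complete control).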

[2] = tested on: velvetleaf (Abutilon theophrasti); assay: Test A pre-/postemergence: velvetleaf; conditions: for Velvetleaf plant response rating: Postemergence; for Plant response rating, Velvetleaf: Preemergence
Procedure, shortened: as §1

[3] = tested on: morningglory (Ipomoea spp.); assay: Test A pre-/postemergence: morningglory; conditions: for Morningglory plant response rating: Postemergence; for Plant response rating, Morningglory: Preemergence
Procedure, shortened: as §1

corn (Zea mays) = assay: Test A pre-/postemergence: corn; conditions: for Corn plant response rating: Postemergence; for Plant response rating, Corn: Preemergence
Procedure, shortened: as §1

[4] = tested on: barnyardgrass (Echinochloa crus-galli); assay: Test A pre-/postemergence: barnyardgrass; conditions: for Barnyardgrass plant response rating: Postemergence; for Plant response rating, Barnyardgrass: Preemergence
Procedure, shortened: as §1

[5] = tested on: crabgrass, large (large crabgrass, Digitaria sanguinalis); assay: Test A pre-/postemergence: crabgrass, large; conditions: for Crabgrass, Large plant response rating: Postemergence; for Plant response rating, Crabgrass, Large: Preemergence
Procedure, shortened: as §1

rice (Oryza sativa) = assay: Test C flooded paddy test: rice; conditions: scale 0 to 100 (0 no effect, 100 complete control)
Procedure, shortened: (§2)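 Greenhouse plants treated at the 2-leaf stage by dosing the flood water (3 cm depth, maintained) were compared with controls after 13 to 15 days and rated 0 to 100, where 100 means complete control; a dash marks no test result.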

[6] = tested on: ducksalad (Heteranthera limosa); assay: Test C flooded paddy test: ducksalad; conditions: scale 0 to 100 (0 no effect, 100 complete control)
Procedure, shortened: as §2

[7] = tested on: barnyardgrass (Echinochloa crus-galli); assay: Test C flooded paddy test: barnyardgrass; conditions: scale 0 to 100 (0 no effect, 100 complete control)
Procedure, shortened: as §2

[8] = tested on: wheat (Triticum aestivum); assay: Test A pre-/postemergence: wheat; conditions: for Wheat plant response rating: Postemergence; for Plant response rating, Wheat: Preemergence
Procedure, shortened: as §1

[9] = tested on: foxtail, giant (giant foxtail, Setaria faberii); assay: Test A pre-/postemergence: foxtail, giant; conditions: for Foxtail, Giant plant response rating: Postemergence; for Plant response rating, Foxtail, Giant: Preemergence
Procedure, shortened: as §1

[10] = tested on: sedge, umbrella (small-flower umbrella sedge, Cyperus difformis); assay: Test C flooded paddy test: sedge, umbrella; conditions: scale 0 to 100 (0 no effect, 100 complete control)
Procedure, shortened: as §2

[11] = 125 g ai/ha, 0 to 100 scale, 0 is no effect, 100 is complete control
[12] = 500 g ai/ha, visual rating on 0 to 100 scale (0 no effect, 100 complete control), approximately ten days
[13] = 125 g ai/ha, 0 to 100 scale (0 no effect, 100 complete control)
[14] = 500 g ai/ha, 0 to 100 scale, 0 is no effect, 100 is complete control
[15] = Flood (flooded paddy test), 125 g ai/ha, visual rating after 13 to 15 days
[16] = Flood (flooded paddy test), 250 g ai/ha, visual rating after 13 to 15 days

COc1nn(-c2ccc(C(F)(F)F)cc2)nc1C(O)c1ccnc(C(F)(F)F)c1 (stereo not drawn) [Compound 78]
30: Foxtail, Giant plant response rating [9, 12]
40: Morningglory plant response rating [3, 12]
0: Morningglory plant response rating [3, 11] | Plant response rating, Morningglory [3, 13] | Corn plant response rating (corn (Zea mays); [11]) | Plant response rating, Corn (corn (Zea mays); [13]) | Plant response rating, Corn (corn (Zea mays); [14]) | Barnyardgrass plant response rating [4, 11] | Plant response rating, Barnyardgrass [4, 13] | Plant response rating, Rice (rice (Oryza sativa); [15]) | Plant response rating, Rice (rice (Oryza sativa); [16]) | Plant response rating, Rice (rice (Oryza sativa); Flood, 31 g ai/ha) | Plant response rating, Rice (rice (Oryza sativa); Flood, 62 g ai/ha) | Plant response rating, Ducksalad [6, 15] | Plant response rating, Ducksalad [6, 16] | Plant response rating, Ducksalad ([6]; Flood, 31 g ai/ha) | Plant response rating, Ducksalad ([6]; Flood, 62 g ai/ha) | Plant response rating, Barnyardgrass [7, 15] | Plant response rating, Barnyardgrass ([7]; Flood, 31 g ai/ha) | Plant response rating, Barnyardgrass ([7]; Flood, 62 g ai/ha) | Wheat plant response rating [8, 11] | Wheat plant response rating [8, 12] | Plant response rating, Wheat [8, 13] | Plant response rating, Wheat [8, 14] | Plant response rating, Sedge, Umbrella [10, 15] | Plant response rating, Sedge, Umbrella [10, 16] | Plant response rating, Sedge, Umbrella ([10]; Flood, 31 g ai/ha) | Plant response rating, Sedge, Umbrella ([10]; Flood, 62 g ai/ha)
90: Pigweed plant response rating [1, 12]
60: Plant response rating, Pigweed [1, 13] | Plant response rating, Crabgrass, Large [5, 13]
10: Velvetleaf plant response rating [2, 11] | Plant response rating, Velvetleaf [2, 13] | Plant response rating, Morningglory [3, 14] | Corn plant response rating (corn (Zea mays); [12]) | Barnyardgrass plant response rating [4, 12] | Crabgrass, Large plant response rating [5, 11] | Foxtail, Giant plant response rating [9, 11]
70: Plant response rating, Pigweed [1, 14] | Plant response rating, Foxtail, Giant [9, 14]
80: Plant response rating, Crabgrass, Large [5, 14]
50: Pigweed plant response rating [1, 11]
20: Velvetleaf plant response rating [2, 12] | Plant response rating, Velvetleaf [2, 14] | Plant response rating, Barnyardgrass [4, 14] | Crabgrass, Large plant response rating [5, 12] | Plant response rating, Barnyardgrass [7, 16] | Plant response rating, Foxtail, Giant [9, 13]
